The values that follow come from patent publication US20260193293A1, “PEPTIDES CAPABLE OF INHIBITING PROTEIN-PROTEIN INTERACTIONS AT GABAB1A SUBUNIT AND USES THEREOF” (UNIVERSITY OF COPENHAGEN, priority 2022, published 2026).

Read-outs that look alike come from different tables or passages of the source. Non-standard residues stand in square brackets, D forms with d. Residues, ends and D or L forms follow the SMILES beside them. NMeT = CN[C@H](C(=O)O)[C@@H](C)O

The assay concerns the target Sushi domains (SD1/2) protein. The assay is described as follows: Fluorescence polarization (FP) competition assay with AJAP-1probe, calculated Ki. The conditions noted are these: read-out: Ki (nM) mean ± SEM. The class given is binding. An outline of the steps: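 Competition against 25 nM TAMRA-labelled peptide probe binding SD1/2, in PBS pH 7.4 with 1% BSA at rt, read at 530/580 nm. IC50 from sigmoidal dose-response fits, at least triplicate; Ki calculated from IC50 using probe Kd from saturation binding.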

Regarding `CC[C@H](C)[C@H](NC(=O)[C@H](C)NC(=O)[C@H](Cc1c[nH]c2ccccc12)NC(=O)[C@@H]1CCCN1C(C)=O)C(=O)N[C@H](C(=O)N[C@@H](Cc1c[nH]c2ccccc12)C(=O)NCC(=O)N1CCC[C@H]1C(=O)N(C)[C@H](C(=O)N[C@H](C(=O)N[C@@H](CO)C(=O)N[C@@H](CCCNC(=N)N)C(=O)N[C@@H](CCC(=O)O)C(=O)N[C@@H](CC(=O)O)C(N)=O)C(C)C)[C@@H](C)O)C(C)C` (Ac-PWAIVWGP[NMeT]VSRED-NH2), the Ki (Table 9, Ala-, D-amino acids and N-methylation scans of PIANPWT) was 1260 ± 27 nM. On to `CC[C@H](C)[C@H](NC(=O)[C@H](C)NC(=O)[C@H](Cc1c[nH]c2ccccc12)NC(=O)[C@@H]1CCCN1C(=O)[C@H](Cc1ccc(O)cc1)NC(=O)[C@H](CCC(N)=O)NC(C)=O)C(=O)N[C@H](C(=O)N[C@@H](Cc1c[nH]c2ccccc12)C(=O)NCC(=O)N1CCC[C@H]1C(=O)N[C@H](C(=O)N[C@H](C(=O)N[C@@H](CO)C(=O)N[C@@H](CCCNC(=N)N)C(=O)N[C@@H](CCC(=O)O)C(=O)N[C@@H](CC(=O)O)C(=O)NCC(N)=O)C(C)C)[C@@H](C)O)C(C)C` (Ac-QYPWAIVWGPTVSREDG-NH2), for which the Ki (Table 6, elongation and truncation scan of PIANP binding epitope) was 650 ± 9 nM. Take `CC[C@H](C)[C@H](NC(=O)[C@H](Cc1c[nH]c2ccccc12)NC(=O)[C@H](CC(=O)O)NC(=O)[C@H](CC(=O)O)NC(=O)[C@H](CC(=O)O)NC(=O)[C@H](CCC(=O)O)NC(=O)[C@H](CCCNC(=N)N)NC(=O)[C@H](CCCNC(=N)N)NC(=O)[C@H](CCCNC(=N)N)NC(=O)[C@H](CCCNC(=N)N)NC(=O)[C@H](CCCNC(=N)N)NC(C)=O)C(=O)N[C@@H](CC(=O)O)C(=O)N[C@@H](Cc1c[nH]c2ccccc12)C(=O)NCC(=O)N1CCC[C@H]1C(=O)N[C@H](C(=O)N[C@@H](CO)C(=O)N[C@@H](CC(=O)O)C(=O)N[C@@H](CC(=O)O)C(=O)N[C@@H](CC(=O)O)C(N)=O)[C@@H](C)O` (Ac-RRRRREDDDWIDWGPTSDDD-NH2): the Ki (Table 14, CPPs tagged peptides) was 32 ± 1 nM. As for `CC[C@H](C)[C@H](NC(=O)[C@H](Cc1c[nH]c2ccccc12)NC(=O)[C@H](CC(=O)O)NC(=O)[C@H](CC(=O)O)NC(=O)[C@H](CC(=O)O)NC(=O)[C@H](CCC(=O)O)NC(=O)[C@H](CCCNC(=N)N)NC(=O)[C@H](CCCNC(=N)N)NC(=O)[C@H](CCCNC(=N)N)NC(=O)[C@H](CCCNC(=N)N)NC(=O)[C@H](CCCNC(=N)N)NC(C)=O)C(=O)N[C@@H](CC(=O)O)C(=O)N[C@@H](Cc1c[nH]c2ccccc12)C(=O)N[C@@H](Cc1ccc(O)cc1)C(=O)N[C@@H](CC(=O)O)C(=O)N[C@@H](CO)C(=O)N[C@@H](CC(=O)O)C(=O)N[C@@H](CC(=O)O)C(=O)N[C@@H](CC(=O)O)C(N)=O` (Ac-RRRRREDDDWIDWYDSDDD-NH2), for the setting “Table 14, CPPs tagged peptides”, the Ki is 39.5 ± 2 nM. In the case of `CC[C@H](C)[C@H](NC(=O)[C@H](Cc1c[nH]c2ccccc12)NC(=O)[C@H](CC(=O)O)NC(=O)[C@H](CC(=O)O)NC(=O)[C@H](CC(=O)O)NC(=O)[C@H](CCC(=O)O)NC(=O)[C@H](CCCNC(=N)N)NC(=O)[C@H](CCCNC(=N)N)NC(=O)[C@H](CCCNC(=N)N)NC(=O)[C@H](CCCNC(=N)N)NC(=O)[C@H](CCCNC(=N)N)NC(=O)[C@H](CCCNC(=N)N)NC(C)=O)C(=O)N[C@@H](CC(=O)O)C(=O)N[C@@H](Cc1c[nH]c2ccccc12)C(=O)NCC(=O)N1CCC[C@H]1C(=O)N[C@H](C(=O)N[C@@H](CO)C(=O)N[C@@H](CC(=O)O)C(=O)N[C@@H](CC(=O)O)C(=O)N[C@@H](CC(=O)O)C(N)=O)[C@@H](C)O` (Ac-RRRRRREDDDWIDWGPTSDDD-NH2), for the setting “Table 14, CPPs tagged peptides”, the inhibition constant (Ki) was 43.4 ± 1 nM. As to `CC[C@H](C)[C@H](NC(=O)[C@H](Cc1c[nH]c2ccccc12)NC(=O)[C@H](CC(=O)O)NC(=O)[C@H](CC(=O)O)NC(=O)[C@H](CC(=O)O)NC(=O)[C@H](CCC(=O)O)NC(=O)[C@H](CCCNC(=N)N)NC(=O)[C@H](CCCNC(=N)N)NC(=O)[C@H](CCCNC(=N)N)NC(=O)[C@H](CCCNC(=N)N)NC(=O)[C@H](CCCNC(=N)N)NC(=O)[C@H](CCCNC(=N)N)NC(C)=O)C(=O)N[C@@H](CC(=O)O)C(=O)N[C@@H](Cc1c[nH]c2ccccc12)C(=O)N[C@@H](Cc1ccc(O)cc1)C(=O)N[C@@H](CC(=O)O)C(=O)N[C@@H](CO)C(=O)N[C@@H](CC(=O)O)C(=O)N[C@@H](CC(=O)O)C(=O)N[C@@H](CC(=O)O)C(N)=O` (Ac-RRRRRREDDDWIDWYDSDDD-NH2), the Ki (Table 14, CPPs tagged peptides) was 70.9 ± 1 nM.

One may read the Ki as the equilibrium dissociation constant of an inhibitor or competing ligand from its target.
